Assay results reported in patent publication US10494356B2, “Compound promoting osteoblast differentiation and inhibiting adipocyte differentiation, preparation method thereof and application thereof” (SUNG KYUN BIOTECH CO., LTD., priority 2016, dated 2019).

Experiments:
Assay type in all cases: cell-based, mouse
[1] = system: ALP mRNA in C3H10T1/2 cells; assay: mRNA expression of osteoblast differentiation factor ALP (real-time PCR); settings: for expression level of ALP, osteogenesis marker (mRNA): Test Example 3: NK11 at 1 μM, other compounds at 5 μM
From the text: (§1) The mRNA expression levels of the osteoblast differentiation factor and the adipocyte differentiation factor in the cells treated with the NK11 compound were investigated.
(§2) First, the expression level of the osteoblast differentiation factor ALP was investigated while differentiating the C3H10T1/2 cells into osteoblasts in the same manner as in […]. Also, the expression levels of the adipocyte differentiation factors PPARγ, aP2 and CD36 compound were investigated while differentiating the C3H10T1/2 cells into adipocytes in the same manner as in Test Example 1.
(§3) Total RNA was extracted using TRIzol (Invitrogen). 1 μg of the isolated RNA was synthesized into cDNA by adding random primers, dNTP and PrimeScript™ reverse transcriptase (Takara). The synthesized cDNA was subjected to real-time PCR using primers and SYBR Premix Ex Taq (Takara).

C3H10T1/2 cells [2] = assay: Fat production during differentiation of C3H10T1/2 cells into adipocytes (Oil Red O staining); settings: for effect of inhibiting adipocyte differentiation: Test Example 3: NK11 at 1 μM, other compounds at 5 μM, vs negative control group (DMSO)
Method: After plating the cells on a 6-well plate in the same manner as in Test Example 1, they were cultured for 9 days in a medium containing 1 μM dexamethasone, 5 μg/mL insulin and 1 μM troglitazone for adipocyte differentiation after adding the NK11 compound at 0.1, 0.5, 1 and 5 μM. After completion of differentiation, the medium was removed and the cells were fixed with 10% neutral buffered formalin and stained with 0.5% Oil Red O solution.
Then, the Lab color space was measured using the image files of the Oil Red O-stained well plate.

[3] = system: PPARγ, aP2 and CD36 mRNAs in C3H10T1/2 cells; assay: mRNA expression of adipocyte differentiation factors PPARγ, aP2 and CD36 (real-time PCR)
From the text: as §1, §2, §3

C3H10T1/2 cells [4] = assay: ALP (alkaline phosphatase) production during differentiation of C3H10T1/2 cells into osteoblasts (ALP staining, -b value)
Method: The C3H10T1/2 cells derived from mouse embryo fibroblasts are pluripotent stem cells that can differentiate into various cell lineages including osteoblasts. Because one of the characteristics of osteoblasts is the ALP (alkaline phosphatase) activity, the differentiation of the C3H10T1/2 cells into osteoblasts was measured based on the ALP activity.
The C3H10T1/2 cells were cultured with a DMEM medium supplemented with 10% FBS and 1% penicillin/streptomycin under the condition of 37° C. and 5% CO2. The C3H10T1/2 cells were cultured on a 6-well plate at a concentration of 2.5×10^4/mL with a medium containing 10 mM β-glycerophosphate and 50 μg/mL ascorbic acid for osteocyte differentiation. The differentiation was performed for 9 days after adding the NK11 compound at 0.1, 0.5, 1 and 5 μM, while replacing the medium with 3-day intervals. Then, ALP staining was performed using 5-bromo-4-chloro-3-indolyl phosphate/nitro blue tetrazolium (BCIP/NBT).
Then, the Lab color space was measured using the image files of the ALP-stained well plate.

[5] = Test Example 3: NK11 at 1 μM, other compounds at 5 μM
[6] = Test Example 3: NK11 at 1 μM, other compounds at 5 μM, vs negative control group (DMSO)
[7] = 0.1, 0.5, 1 and 5 μM, 9 days differentiation, compared to DMSO-treated negative control

## COC(=O)[C@@H]1[C@@H](C(=O)OC)[C@H](c2cc(OC)c(O)c(OC)c2)O[C@H]1c1cc(OC)c(O)c(OC)c1 [Chemical Formula 2]
[1]
  expression level of ALP, osteogenesis marker (mRNA): no effect
C3H10T1/2 cells [2]
  effect of inhibiting adipocyte differentiation: no difference in the effect of inhibiting adipocyte differentiation from the negative control group (DMSO)
[3]; [5]
  expression levels of the adipocyte-related genes CD36, aP2 and PPARγ: no effect
C3H10T1/2 cells [4]; [6]
  ALP production: no difference in ALP production from the negative control group (DMSO)

## COc1cc([C@@H]2O[C@@H](c3cc(OC)c(O)c(OC)c3)[C@H](COC(=O)/C=C/c3ccc(O)cc3)[C@H]2COC(=O)/C=C\c2ccc(O)cc2)cc(OC)c1O [Chemical Formula 8]
[1]; at the concentration of 5 μM
  expression of ALP, osteogenesis marker (mRNA): expressed highly
C3H10T1/2 cells [2]; [7]
  fat production by adipocytes (Oil Red O): inhibited fat production by adipocytes in a concentration-dependent manner
[3]; 0.1, 0.5, 1 and 5 μM, mRNA, real-time PCR
  expression levels of the adipocyte-related genes CD36, aP2 and PPARγ: decreased the expression levels of the adipocyte-related genes CD36, aP2 and PPARγ in a concentration-dependent manner
C3H10T1/2 cells [4]; [7]
  ALP production: increased ALP production in a concentration-dependent manner

## COc1cc([C@@H]2O[C@@H](c3cc(OC)c(O)c(OC)c3)[C@H](COC(C)=O)[C@H]2COC(C)=O)cc(OC)c1O [Chemical Formula 11]
[1]
  expression level of ALP, osteogenesis marker (mRNA): no effect
C3H10T1/2 cells [2]
  effect of inhibiting adipocyte differentiation: no difference in the effect of inhibiting adipocyte differentiation from the negative control group (DMSO)
[3]; [5]
  expression levels of the adipocyte-related genes CD36, aP2 and PPARγ: no effect
C3H10T1/2 cells [4]; [6]
  ALP production: no difference in ALP production from the negative control group (DMSO)

## COCOc1c(OC)cc([C@@H]2O[C@@H](c3cc(OC)c(OCOC)c(OC)c3)[C@H](CO)[C@H]2CO)cc1OC [Chemical Formula 4]
[1]
  expression level of ALP, osteogenesis marker (mRNA): no effect
C3H10T1/2 cells [2]
  effect of inhibiting adipocyte differentiation: no difference in the effect of inhibiting adipocyte differentiation from the negative control group (DMSO)
[3]; [5]
  expression levels of the adipocyte-related genes CD36, aP2 and PPARγ: no effect
C3H10T1/2 cells [4]; [6]
  ALP production: no difference in ALP production from the negative control group (DMSO)

## COc1cc([C@@H]2O[C@@H](c3cc(OC)c(O)c(OC)c3)[C@H](COC(=O)/C=C/c3ccccc3)[C@H]2COC(=O)/C=C/c2ccccc2)cc(OC)c1O [Chemical Formula 9]
[1]
  expression level of ALP, osteogenesis marker (mRNA): high
C3H10T1/2 cells [2]
  effect of inhibiting adipocyte differentiation: showed the effect of inhibiting adipocyte differentiation as the NK11 compound
[3]; [5]
  expression levels of the adipocyte-related genes CD36, aP2 and PPARγ: decreased
C3H10T1/2 cells [4]; [6]
  ALP production: significant effect of promoting ALP production although slightly lower than that of NK11
C3H10T1/2 cells [4]; Test Example 3: compound at 5 μM vs NK11 at 1 μM
  ALP production as compared to the NK11 compound: about 2 times

## COc1cc([C@@H]2O[C@@H](c3cc(OC)c(O)c(OC)c3)[C@H](CO)[C@H]2CO)cc(OC)c1O [Chemical Formula 10]
[1]
  expression level of ALP, osteogenesis marker (mRNA): no effect
C3H10T1/2 cells [2]
  effect of inhibiting adipocyte differentiation: no difference in the effect of inhibiting adipocyte differentiation from the negative control group (DMSO)
[3]; [5]
  expression levels of the adipocyte-related genes CD36, aP2 and PPARγ: no effect
C3H10T1/2 cells [4]; [6]
  ALP production: no difference in ALP production from the negative control group (DMSO)
